Measured values as given in US7417156B2, “Orally active, antimalarial, anticancer, artemisinin-derived trioxane dimers” (Johns Hopkins University, priority 2002, dated 2008).
Where two headings read alike, the source gives them in different places.

Key:
T-47D = experiment: NCI 60 cell line panel screen (SRB); type: cell-based, human
A549/ATCC = experiment: NCI 60 cell line panel screen (SRB); type: cell-based, human
NCI-H522 = experiment: NCI 60 cell line panel screen (SRB); type: cell-based, human
[1] = test system: chloroquine-sensitive P. falciparum (NF54); experiment: Antimalarial activity in vitro, [3H]hypoxanthine incorporation; type: cell-based
786-0 = experiment: NCI 60 cell line panel screen (SRB); type: cell-based, human
OVCAR-3 = experiment: NCI 60 cell line panel screen (SRB); type: cell-based, human
60 cell line panel = type: cell-based
NCI-H460 = experiment: NCI 60 cell line panel screen (SRB); type: cell-based, human
SF-539 = experiment: NCI 60 cell line panel screen (SRB); type: cell-based, human
NCI/ADR-RES = experiment: NCI 60 cell line panel screen (SRB); type: cell-based, human
HCT-116 = experiment: NCI 60 cell line panel screen (SRB); type: cell-based, human
HCT-15 = experiment: NCI 60 cell line panel screen (SRB); type: cell-based, human
MALME-3M = experiment: NCI 60 cell line panel screen (SRB); type: cell-based, human
TK-10 = experiment: NCI 60 cell line panel screen (SRB); type: cell-based, human
SNB-19 = experiment: NCI 60 cell line panel screen (SRB); type: cell-based, human
COLO 205 = experiment: NCI 60 cell line panel screen (SRB); type: cell-based, human
EKVX = experiment: NCI 60 cell line panel screen (SRB); type: cell-based, human
MCF7 = experiment: NCI 60 cell line panel screen (SRB); type: cell-based, human
NCI-H322M = type: cell-based
IGROVI = experiment: NCI 60 cell line panel screen (SRB); type: cell-based, human
UO-31 = experiment: NCI 60 cell line panel screen (SRB); type: cell-based, human
[2] = mean value over the 60 cell line panel

In the case of `CC1CCC2C(C)C(CC(COC(=O)c3cc[n+]([O-])cc3)CC3OC4OC5(C)CCC6C(C)CCC(C3C)C46OO5)OC3OC4(C)CCC1C32OO4` (stereo not drawn) [Compound 13, bis-trioxane primary alcohol isonicotinate N-oxide], the Log10GI50 (T-47D; Breast Cancer, T-47D) is reported as <−8.30, the Log10LC50 (T-47D; T-47D (Breast Cancer), LC50: PG=−50) is reported as >−4.30 log10M and the Log10TGI50 (T-47D; T-47D (Breast Cancer), TGI: PG=0) is reported as −5.36 log10M. For the same compound, the Log10LC50 (A549/ATCC; A549/ATCC (Non-Small Cell Lung Cancer), LC50: PG=−50) was >−4.30 log10M, the Log10TGI50 (A549/ATCC; A549/ATCC (Non-Small Cell Lung Cancer), TGI: PG=0) was −4.61 log10M and the Log10GI50 (A549/ATCC; Non-Small Cell Lung Cancer, A549/ATCC) was −5.98. For the same compound, the Log10TGI50 (NCI-H522; NCI-H522 (Non-Small Cell Lung Cancer), TGI: PG=0) was −4.60 log10M, the Log10LC50 (NCI-H522; NCI-H-522 (Non-Small Cell Lung Cancer), LC50: PG=−50) was >−4.30 log10M and the IC50 [1] was “sub-nanomolar”. For the same compound, the IC50 ([1]; Table I, NF54 strain, read-out: IC50) was 0.53 nM, the Log10LC50 (786-0; 786-0 (Renal Cancer), LC50: PG=−50) was −4.43 log10M and the Log10TGI50 (786-0; 786-0 (Renal Cancer), TGI: PG=0) was −4.94 log10M. For the same compound, the Log10GI50 (786-0; Renal Cancer, 786-0) was −7.81, the Log10LC50 (OVCAR-3; OVCAR-3 (Ovarian Cancer), LC50: PG=−50) was −4.51 log10M and the Log10TGI50 (OVCAR-3; OVCAR-3 (Ovarian Cancer), TGI: PG=0) was −4.98 log10M. The Log10GI50 (OVCAR-3; Ovarian Cancer, OVCAR-3) was −7.75, the “Log10GI50 Delta” value (60 cell line panel) was 0.92 and the “Log10GI50 Range” value (60 cell line panel) was 3.22. The “Log10LC50 Delta” value (60 cell line panel; 60 cell line panel) was 1.27, the “Log10LC50 Range” value (60 cell line panel; 60 cell line panel) was 1.49 and the “Log10TGI50 Delta” value (60 cell line panel; 60 cell line panel) was 3.15. The “Log10TGI50 Range” value (60 cell line panel; 60 cell line panel) was 4.00, the “Log10GI50 MG MID” value (60 cell line panel; mean over panel) was −7.38 and the “Log10LC50 MG MID” value (60 cell line panel; [2]) was −4.51 log10M. For the same compound, the “Log10TGI50 MG MID” value (60 cell line panel; [2]) was −5.15 log10M, the Log10LC50 (NCI-H460; NCI-H460 (Non-Small Cell Lung Cancer), LC50: PG=−50) was −4.36 log10M and the Log10TGI50 (NCI-H460; NCI-H460 (Non-Small Cell Lung Cancer), TGI: PG=0) was −4.92 log10M. The Log10GI50 (NCI-H460; Non-Small Cell Lung Cancer, NCI-H460) was <−8.30, the Log10GI50 (SF-539; CNS Cancer, SF-539) was <−8.30 and the Log10LC50 (SF-539; SF-539 (CNS Cancer), LC50: PG=−50) was −4.56 log10M. For the same compound, the Log10GI50 (NCI/ADR-RES; Breast Cancer, NCI/ADR-RES) was −7.60, the Log10LC50 (NCI/ADR-RES; NCI/ADR-RES (Breast Cancer), LC50: PG=−50) was −4.65 log10M and the Log10TGI50 (NCI/ADR-RES; NCI/ADR-RES (Breast Cancer), TGI: PG=0) was −5.18 log10M. For the same compound, the Log10GI50 (HCT-116; Colon Cancer, HCT-116) was <−8.30, the Log10LC50 (HCT-116; HCT-116 (Colon Cancer), LC50: PG=−50) was >−4.30 log10M and the Log10TGI50 (HCT-116; HCT-116 (Colon Cancer), TGI: PG=0) was −5.06 log10M. The Log10GI50 (HCT-15; Colon Cancer, HCT-15) was <−8.30, the Log10LC50 (HCT-15; HCT-15 (Colon Cancer), LC50: PG=−50) was −4.81 log10M and the Log10TGI50 (HCT-15; HCT-15 (Colon Cancer), TGI: PG=0) was −8.19 log10M. The Log10LC50 (MALME-3M; MALME-3M (Melanoma), LC50: PG=−50) was −4.66 log10M, the Log10TGI50 (MALME-3M; MALME-3M (Melanoma), TGI: PG=0) was <−8.30 log10M and the Log10GI50 (MALME-3M; Melanoma, MALME-3M) was <−8.30. For the same compound, the Log10GI50 (TK-10; Renal Cancer, TK-10) was <−8.30, the Log10LC50 (TK-10; TK-10 (Renal Cancer), LC50: PG=−50) was −4.53 log10M and the Log10TGI50 (TK-10; TK-10 (Renal Cancer), TGI: PG=0) was −5.34 log10M. For the same compound, the Log10GI50 (SNB-19; CNS Cancer, SNB-19) was −5.08, the Log10LC50 (SNB-19; SNB-19 (CNS Cancer), LC50: PG=−50) was >−4.30 log10M and the Log10TGI50 (SNB-19; SNB-19 (CNS Cancer), TGI: PG=0) was >−4.30 log10M. For the same compound, the Log10LC50 (COLO 205; COLO 205 (Colon Cancer), LC50: PG=−50) was >−4.30 log10M, the Log10TGI50 (COLO 205; COLO 205 (Colon Cancer), TGI: PG=0) was >−4.30 log10M and the Log10GI50 (COLO 205; Colon Cancer, COLO 205) was <−8.30. For the same compound, the Log10LC50 (EKVX; EKVX (Non-Small Cell Lung Cancer), LC50: PG=−50) was −4.59 log10M, the Log10TGI50 (EKVX; EKVX (Non-Small Cell Lung Cancer), TGI: PG=0) was −5.08 log10M and the Log10GI50 (EKVX; Non-Small Cell Lung Cancer, EKVX) was −8.19. For the same compound, the Log10GI50 (MCF7; Breast Cancer, MCF7) was <−8.30, the Log10LC50 (MCF7; MCF7 (Breast Cancer), LC50: PG=−50) was −4.44 log10M and the Log10TGI50 (MCF7; MCF7 (Breast Cancer), TGI: PG=0) was −5.03 log10M. For the same compound, the Log10LC50 (NCI-H322M; NCI-H322M (Non-Small Cell Lung Cancer), LC50: PG=−50) was −4.59 log10M, the Log10TGI50 (NCI-H322M; NCI-H322M (Non-Small Cell Lung Cancer), TGI: PG=0) was −5.06 log10M and the Log10GI50 (NCI-H322M; Non-Small Cell Lung Cancer, NCI-H322M) was −6.26. The Log10LC50 (IGROVI; IGROVI (Ovarian Cancer), LC50: PG=−50) was >−4.30 log10M, the Log10TGI50 (IGROVI; IGROVI (Ovarian Cancer), TGI: PG=0) was >−4.30 log10M and the Log10GI50 (IGROVI; Ovarian Cancer, IGROVI) was −5.36. For the same compound, the Log10GI50 (UO-31; Renal Cancer, UO-31) was <−8.30, the Log10LC50 (UO-31; UO-31 (Renal Cancer), LC50: PG=−50) was >−4.30 log10M and the Log10TGI50 (UO-31; UO-31 (Renal Cancer), TGI: PG=0) was −5.10 log10M.
